# Reference: patent publication US20060052282A1, “Diagnostic and therapeutic means for pathologies associated with alpha 2 subunit of the na, k pump” (priority 2002, published 2006)
# Columns and labels:
# HeLa cells = test: Ouabain treatment of transfected HeLa cells (survival, MTT cell viability); format: cell-based, human; conditions: 1 μM ouabain
# Protocol: Constructs were transfected by calcium phosphate (HeLa cells) following standard procedures or by Lipofectamine (COS-7 cells), (Gibco, Invitrogene Co., Carlsbad, Calif., USA).
# Cell viability was measured with the MTT (13) reduction assay after 12, 24, 36, 48 and 60 hours. Each experiment was made in triplicate and statistical analysis was done by Student's t-test (homoscedastic).
# (§1) As all vertebrate cells present Na,K ATPase activity, the endogenous Na,K pump activity of HeLa cells was quenched to test the ion transport performance of the exogenous mutant forms. A site-directed mutagenesis was carried out to abolish the natural ouabain sensitivity of the ATP1A2 construct by mutagenizing two amino acids, Q116R and N127D, in the first extracellular loop that is part of the ouabain binding site of Na,K ATPase (15).
# Constructs were transfected by calcium phosphate (HeLa cells) following standard procedures.
# Cell viability was measured with the MTT reduction assay after 24,48 and 72 hours of 1 μM ouabain challenge. We performed two independent experiments and in each experiment, datapoints are in triplicate.
# HEK293 = test: Ouabain treatment of transfected HEK293 cells; format: cell-based, human; conditions: 1 μM ouabain; pA2Oua^r-wt versus mock transfected cells
# Protocol: as §1
compound,measurement,setting,value
C[C@@H]1O[C@@H](O[C@H]2C[C@@H](O)[C@]3(CO)[C@H]4[C@H](O)C[C@]5(C)[C@@H](C6=CC(=O)OC6)CC[C@]5(O)[C@@H]4CC[C@]3(O)C2)[C@H](O)[C@H](O)[C@H]1O [ouabain],cell survival in ouabain-containing media,HeLa cells; HeLa cells transfected with ouabain-resistant ATP1A2 construct pA2Oua^r-wt,can survive and grow
same,cell survival under ouabain treatment,HeLa cells; HeLa cells transfected with ouabain-resistant T378N (AHC) ATP1A2 construct,did not survive
same,cell survival under ouabain treatment,HeLa cells; HeLa cells transfected with pA2Oua^r-P764 (L764P),failed to survive
same,cell survival under ouabain treatment,HeLa cells; HeLa cells transfected with pA2Oua^r-R887 (W887R),failed to survive
same,time to death of cells in ouabain-containing media,"HeLa cells; mock transfected HeLa cells (wild-type ATP1A2, non-ouabain resistant)",36 to 48 h
same,cell survival under ouabain treatment,"HeLa cells; simulated heterozygous state, equal amount of wild-type and T378N mutant cDNAs",intermediate behaviour
same,cell survival under ouabain treatment,"HeLa cells; simulated heterozygous states, equal amounts of wild-type and mutant (P764 or R887) constructs",intermediate behavior
same,cell survival in ouabain-containing media compared with HeLa,HEK293,Identical results
